Patent US20250382346A1, “NEURONAL PROMOTERS AND USES THEREOF” (priority 2023, published 2025)

How the values were obtained:
hM3Dq = target: T1, hM3Dq (Homo sapiens, UniProt P20309, A239G/Y149C); assay: Striatal slice whole-cell recordings of retrogradely labeled D1-MSNs, hM3Dq; format: cell-based, mice; settings: AAV8R12-G88P3-HA-hM3Dq-2A-EYFP; CNO 10 μM; basal firing rate and resting membrane potential unaffected
T1 construct: expressed in transfected cells; host or cells: neurons of C57BL/6J mice or of macaques, transduced in vivo by nigral AAV8R12-G88P3-HA-hM3Dq
T1 sequence (P20309 whole entry Y149C/A239G): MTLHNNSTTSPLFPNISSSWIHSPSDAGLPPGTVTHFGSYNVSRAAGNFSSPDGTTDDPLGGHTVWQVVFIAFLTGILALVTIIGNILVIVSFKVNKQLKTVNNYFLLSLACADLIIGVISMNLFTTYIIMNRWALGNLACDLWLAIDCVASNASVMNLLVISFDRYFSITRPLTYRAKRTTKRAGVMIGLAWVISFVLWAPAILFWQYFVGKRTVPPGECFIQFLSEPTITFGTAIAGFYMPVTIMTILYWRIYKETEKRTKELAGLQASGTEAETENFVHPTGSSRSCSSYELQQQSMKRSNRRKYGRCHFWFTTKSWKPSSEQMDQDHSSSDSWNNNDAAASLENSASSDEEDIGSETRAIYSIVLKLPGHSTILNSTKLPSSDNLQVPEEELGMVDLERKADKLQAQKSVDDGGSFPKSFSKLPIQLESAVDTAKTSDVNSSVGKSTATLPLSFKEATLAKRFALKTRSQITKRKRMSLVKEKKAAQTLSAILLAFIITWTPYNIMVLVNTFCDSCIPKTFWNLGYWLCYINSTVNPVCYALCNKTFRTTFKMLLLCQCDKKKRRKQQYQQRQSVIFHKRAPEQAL
From the text: (§1) Mice from different groups were anesthetized with […] isoflurane, and then decapitated. The brain was quickly extracted and placed in ice-cold N-methyl-D-glucamine (NMDG) cutting solution containing (in mM): 92 NMDG, 2.5 KCl, 25 NaHCO3, 1.25 NaH2PO4, 4.5 D-Glucose, 20 HEPES, 5 L-ascorbic acid, 3 Na-pyruvate, 2 Thiourea, 10 MgSO4, 0.5 CaCl2). The pH was adjusted to 7.2±0.1 using HCl and the osmolarity was adjusted to 305±5 mosmol/L using NMDG. The solution was bubbled with 95% O2/5% CO2 prior to use. Coronal striatum slices were cut in 250-[…]m thickness with a vibratome slicer (Leica, VT1200 S), and then incubated in artificial cerebrospinal fluid (aCSF) saturated with 95% O2/5% CO2 for at least 45 min at 37° C. before recording. The aCSF contains (in mM) 125 NaCl, 1.25 KCl, 25 NaHCO3, 1.25 KH2PO4, 25 D-Glucose, 2 CaCl2) and 1 MgCl2, supplemented with 2 mM Na-pyruvate, 3 mM Myo-inositol and 0.4 mM L-ascorbic acid.
(§2) The acute striatum slice was transferred to the recording chamber with a constant perfusion of oxygenized aCSF at the rate of 3 ml/min. Neurons were visualized using an upright microscope (Olympus, BX-51) with a 40× water immersion objective at room temperature (˜25° C.). […] Neurons were quickly visualized under fluorescence microscope and then patch clamp were achieved under infrared light illumination and CCD camera. […]

rM3Ds = target: T2, rM3Ds (Rattus norvegicus, UniProt P08483, A177S/A238G/A489L/DEL261-437/DEL441-478/E258S/I253V/I483M/INS256[…]/K178L/K182A/K255R/K484R/K486H/L173F/L482A/M480V/R171S/R176Q/R179M/S481M/T174R/T181R/T257A/Y148C); assay: Striatal slice whole-cell recordings of retrogradely labeled D1-MSNs, rM3Ds; format: cell-based, mice; set-up: 2A-EYFP (C); expressed in transfected cells; host or cells: neurons (striatal D1-MSNs) of mice or cynomolgus macaques, transduced in vivo by nigral AAV8R12-G88P7-rM3Ds-2A-EYFP; settings: AAV8R12-G88P7-rM3Ds-2A-EYFP; CNO 10 μM; basal firing rate and resting membrane potential unaffected
T2 sequence (P08483 with tags, fused parts or gaps Y148C/R171S/L173F/T174R/R176Q/A177S/K178L/R179M/T181R/K182A/A238G/I253V/K255R/INS256[…]/T257A/E258S/DEL261-437/DEL441-478/M480V/S481M/L482A/I483M/K484R/K486H/A489L): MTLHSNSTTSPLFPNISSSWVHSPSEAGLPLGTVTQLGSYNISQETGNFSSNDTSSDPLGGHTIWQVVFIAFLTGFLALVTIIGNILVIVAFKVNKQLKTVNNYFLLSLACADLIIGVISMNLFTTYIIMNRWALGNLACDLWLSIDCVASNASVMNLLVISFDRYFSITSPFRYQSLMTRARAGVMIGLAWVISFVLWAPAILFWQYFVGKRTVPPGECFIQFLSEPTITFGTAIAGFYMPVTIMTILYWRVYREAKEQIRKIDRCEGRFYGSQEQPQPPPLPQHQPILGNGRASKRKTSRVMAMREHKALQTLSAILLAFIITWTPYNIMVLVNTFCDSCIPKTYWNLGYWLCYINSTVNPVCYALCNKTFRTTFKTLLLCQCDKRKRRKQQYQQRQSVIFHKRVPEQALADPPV
From the text: as §1, §2

Q: Which “excitability of transduced MSNs upon CNO” value (hM3Dq) does the source give for C[N+]1([O-])CCN(C2=Nc3cc(Cl)ccc3Nc3ccccc32)CC1 [CNO, Clozapine-N-oxide] here?
A: augmentation of excitability

Q: What about the “excitability of labeled striatal MSNs upon CNO” value (rM3Ds) of the same compound?
A: enhancement in the excitability
